Measured values taken from patent EP2177533A1, “Multiple N-methylated cyclic hexapeptides for treatment of neurogenic inflammation” (TU München, priority 2008, dated 2010).
Marks after values point to notes of the source that are not given here.

Assays:
[1] = cited from earlier work
[2] = tested on: 1% mustard oil-induced neurogenic plasma protein extravasation in the rat paw skin; type: in vivo; conditions: 100 µg/kg i.p., 10 min before induction of inflammation; rat hindpaw dorsal skin
Method: • Figure 1 provides a graphical representation of the effect of some compounds of the present invention on electrical field stimulation (EFS; 40 V, 0.1 ms, 10 Hz for 120 s; 1200 pulses)-induced calcitonin gene-related (CGRP) release from sensory fibres of the isolated rat tracheae. Each column represents the mean±s.e.m. CGRP concentration measured in the incubation medium of the prestimulated, stimulated and poststimulated 8-minute fractions of n = 5 experiments (5 x 2 tracheae/group). Analogs were added to the incubation medium (500 nM) at the beginning of the second and third fractions. *P<0.05, **P<0.01, vs. respective fraction of the control experiment (Mann-Whitney U-test). • Figure 2 provides a graphical representation of the effect of small peptide somatostatin analogs on 1% mustard oil-induced acute neurogenic plasma protein extravasation in the dorsal skin of the rat paw. Each column represents the mean±s.e.m. Evans blue accumulation per g wet skin of n = 6-10 experiments. […]
To confirm the findings of this in vitro study, a further in vivo activity test was performed: Compounds of the invention were examined on 1% mustard oil-induced neurogenic plasma protein extravasation in the rat paw skin.
Both hindlegs of the rats were acutely denervated (the sciatic and the saphenous nerves were cut 30 min before the induction of inflammation) under sodium pentobarbitone (Nembutal, 40 mg/kg i.p.) anaesthesia to avoid central reflexes. Acute neurogenic inflammation in the dorsal skin of the hindpaws was evoked by topical application of 1 % mustard oil dissolved in paraffin oil. Extravasation of plasma albumin was measured by the Evans blue leakage method. Evans blue (50 mg/kg) was injected i.v. and neurogenic inflammation was induced 10 min later. Rats were killed by exsanguination 20 min after mustard oil application. […] The amount of the accumulated Evans blue, which quantitatively correlates with the intensity of plasma extravasation, was expressed as µg dye/g wet tissue (Helyes et al., 1997; Helyes et al., 2001). […]

[3] = tested on: peripheral terminals of sensory nerves of the isolated rat trachea; assay: Electrical field stimulation-induced CGRP release from sensory nerve terminals of the isolated rat trachea (RIA); conditions: 500 nM; for EFS-evoked increase in the outflow of CGRP: stimulated and post-stimulated fractions vs control; for CGRP release in % compared to the prestimulated fraction: total CGRP release in stimulated and poststimulated fractions together vs basal outflow, n=5, mean with spread
Method: • Figure 1 provides a graphical representation of the effect of some compounds of the present invention on electrical field stimulation (EFS; 40 V, 0.1 ms, 10 Hz for 120 s; 1200 pulses)-induced calcitonin gene-related (CGRP) release from sensory fibres of the isolated rat tracheae. Each column represents the mean±s.e.m. CGRP concentration measured in the incubation medium of the prestimulated, stimulated and poststimulated 8-minute fractions of n = 5 experiments (5 x 2 tracheae/group). Analogs were added to the incubation medium (500 nM) at the beginning of the second and third fractions. *P<0.05, **P<0.01, vs. respective fraction of the control experiment (Mann-Whitney U-test). • Figure 2 provides a graphical representation of the effect of small peptide somatostatin analogs on 1% mustard oil-induced acute neurogenic plasma protein extravasation in the dorsal skin of the rat paw. Each column represents the mean±s.e.m. Evans blue accumulation per g wet skin of n = 6-10 experiments. Analogs were injected i.p. (100 µg/kg) 10 min before the induction of the inflammation. *P<0.05 vs. solvent-treated control experiment (Mann-Whitney U-test).
The activities of the above described synthetic somatostatin analogs were determined by means of an in vitro pharmacological assay on the release of the sensory neuropeptide CGRP from the peripheral terminals of sensory nerves of the isolated rat trachea. This experimental model was established more than 10 years ago (Helyes et al. (1997) Br. J. Pharmacol. 121, 613-615; Szolcsányi et al. (1998) Br. J. Pharmacol. 123, 936-942; Szolcsányi et al. (1998) Br. J. Pharmacol. 125, 916-922; Helyes et al. (2004) Arthr. Rheum., 50, 1677-1685; Bölcskei et al. (2005) Pain 117, 368-376; Helyes et al. (2007) Am. J. Physiol. Lung Cell. Mol. Physiol. 292, L1173-81; Nemeth et al. (1998) Eur. J. Pharmacol, 347, 101-104.) and it represents a reliable and sensitive technique for the investigation of drug effects at the level of peripheral nerve endings. Electrical field stimulation parameters are used to induce CGRP release that is selective for capsaicin-sensitive afferents. Since CGRP is an important mediator of neurogenic inflammation, the effectiveness of compounds in decreasing its electrically-evoked release in vitro may be seen as an indicator for effectiveness to inhibit neurogenic inflammatory reactions in vivo.
Experiments were performed on male Wistar rats bred and kept in the Laboratory Animal Centre of the University of Pécs under standard pathogen free conditions at 24-25 °C and provided with standard rat chow and water ad libitum. The method has been described in detail elsewhere (Helyes et al. (1997) Br. J. Pharmacol. 121, 613-615; Nemeth et al. (1998) Eur. J. Pharmacol. 347, 101-104.). In brief, rats were exsanguinated in deep anesthesia (sodium thiopental, 50 mg/kg i.p.), then the whole trachea was removed and cleaned of fat and adhering connective tissues. Tracheae from two rats were placed into the same organ bath (1.8 ml) to achieve sufficient amount of peptide release and perfused (1 ml/min) with pH- (7.2) controlled oxygenized Krebs solution for 60 min (equilibration period) at 37 °C temperature. After discontinuation of the flow, the solution was changed three times for eight minutes to produce prestimulated, stimulated, poststimulated fractions. In the second 8-min period electrical field stimulation (EFS; 40 V, 0.1 ms, 10 Hz for 120 s; 1200 pulses) was performed to elicit neurotransmitter release. Concentration of CGRP was determined from 200 µL samples of the incubation medium by a selective and specific radioimmunoassay (RIA) technique as described previously in detail (Nemeth et al., 1996; Helyes et al., 1997; Nemeth et al., 1998; Nemeth et al., 1999). Peptide outflow was expressed as the released amount per wet tissue weight. Detection limit of the assay was 0.2 fmol/tube. […]

[4] = cited from earlier work; remark: listed apart in the source
[5] = cited from earlier work; remark: listed apart in the source

Molecule | half life in serum [1] [min] | µg Evans blue/g wet tissue (mean±s.e.m.) [2] | EFS-evoked increase in the outflow of CGRP [3] | CGRP release in % compared to the prestimulated fraction [3] | CGRP outflow in the poststimulated fraction ([3]; poststimulated fraction) | inhibitory action on CGRP outflow in the stimulated period ([3]; stimulated fraction, EFS 1200 pulses) | bioavailability after oral administration [4] | stability in the blood and in the gastrointestinal tract [5]
Somatostatin | < 3 | – | – | – | – | – | – | –
CC(C)[C@@H]1NC(=O)[C@H](CCCCN)N(C)C(=O)[C@@H](Cc2c[nH]c3ccccc23)N(C)C(=O)[C@H](Cc2ccc(O)cc2)NC(=O)[C@H](C)N(C)C(=O)[C@H](Cc2ccccc2)NC1=O [MK-678-2, cyclo(-MeAla-Tyr-D-MeTrp-MeLys-Val-Phe-)] | – | 119.92±32.7 µg Evans blue/g wet tissue | significantly inhibited | 153,12 ± 29,72* % | – | – | – | –
CC(C)[C@@H]1NC(=O)[C@H](CCCCN)N(C)C(=O)[C@@H](Cc2c[nH]c3ccccc23)NC(=O)[C@H](Cc2ccc(O)cc2)NC(=O)[C@H](C)N(C)C(=O)[C@H](Cc2ccccc2)NC1=O [MK-678-3, cyclo(-MeAla-Tyr-D-Trp-MeLys-Val-Phe-)] | – | 127.13±23.0 µg Evans blue/g wet tissue | significantly inhibited | 181,57 ± 54,17* % | – | – | – | –
CC(C)[C@@H]1NC(=O)[C@H](CCCCN)N(C)C(=O)[C@@H](Cc2c[nH]c3ccccc23)N(C)C(=O)[C@H](Cc2ccc(O)cc2)NC(=O)[C@H](C)N(C)C(=O)[C@H](Cc2ccccc2)N(C)C1=O [MK-678-1, cyclo(-MeAla-Tyr-D-MeTrp-MeLys-Val-MePhe-)] | – | 90.06±10.4* µg Evans blue/g wet tissue | significantly inhibited | 99,58 ± 39,89** % | completely abolished | about 70% | – | –
CC(C)[C@@H]1NC(=O)[C@H](CCCCN)NC(=O)[C@@H](Cc2c[nH]c3ccccc23)NC(=O)[C@H](Cc2ccc(O)cc2)NC(=O)[C@H](C)N(C)C(=O)[C@H](Cc2ccccc2)NC1=O [MK-678-0, c(-MeAYwKVF-)] | – | – | – | – | – | – | 1-3% | quite stable
